# Results from ChEMBL document CHEMBL3044764, “Synthesis and herbicidal activities of 2-cyano-3-benzylaminoacrylates containing thiazole moiety” (2010).
# Key:
# [1] = target: Photosystem II protein D1 (Spinacia oleracea) (UniProt P69560); assay: Inhibition of photosystem II in Spinacia oleracea (spinach) chloroplast assessed as inhibition of hill reaction at 1 ug/ml relative to control
# Brassica napus [2] = assay: Post-emergence herbicidal activity against Brassica napus (oilseed rape) at 1500 g/ha after 10 days; format: functional
# Medicago sativa [3] = assay: Pre-emergence herbicidal activity against Medicago sativa (alfalfa) at 1500 g/ha after 10 days; format: functional
# Amaranthus retroflexus [4] = assay: Post-emergence herbicidal activity against Amaranthus retroflexus at 1500 g/ha after 10 days; format: functional
# Brassica napus [5] = assay: Pre-emergence herbicidal activity against Brassica napus (oilseed rape) at 1500 g/ha after 10 days; format: functional
# Amaranthus retroflexus [6] = assay: Pre-emergence herbicidal activity against Amaranthus retroflexus at 1500 g/ha after 10 days; format: functional
# Medicago sativa [7] = assay: Post-emergence herbicidal activity against Medicago sativa (alfalfa) at 1500 g/ha after 10 days; format: functional
# Brassica napus [8] = assay: Post-emergence herbicidal activity against Brassica napus (oilseed rape) at 750 g/ha after 10 days; format: functional
# Amaranthus retroflexus [9] = assay: Post-emergence herbicidal activity against Amaranthus retroflexus at 375 g/ha after 10 days; format: functional
# Brassica napus [10] = assay: Post-emergence herbicidal activity against Brassica napus (oilseed rape) after 10 days; format: functional
# Amaranthus retroflexus [11] = assay: Post-emergence herbicidal activity against Amaranthus retroflexus at 750 g/ha after 10 days; format: functional
# Brassica napus [12] = assay: Post-emergence herbicidal activity against Brassica napus (oilseed rape) at 375 g/ha after 10 days; format: functional
SMILES,inhibition [1] [%],Activity (Brassica napus [2]) [%],Activity (Medicago sativa [3]) [%],Activity (Amaranthus retroflexus [4]) [%],Activity (Brassica napus [5]) [%],Activity (Amaranthus retroflexus [6]) [%],Activity (Medicago sativa [7]) [%],Activity (Brassica napus [8]) [%],Activity (Amaranthus retroflexus [9]) [%],LD50 (Brassica napus [10]) [g/ha],LD90 (Brassica napus [10]) [g/ha],Activity (Amaranthus retroflexus [11]) [%],Activity (Brassica napus [12]) [%]
COCCOC(=O)/C(C#N)=C(\NCc1ccc(OCc2cnc(Cl)s2)c(OC)c1)SC,61.2,83.6,50.6,89.6,0,2.7,66.1,–,–,–,–,–,–
COCCOC(=O)/C(C#N)=C(\NCc1ccc(OCc2cnc(Cl)s2)cc1)C(C)C,82,100,0,91.6,0,0,30,100,98.1,53.48,146.04,100,92.8
CCOCCOC(=O)/C(C#N)=C(/C)NCc1ccc(OCc2cnc(Cl)s2)c(OC)c1,68.5,94.2,30.6,89.6,0,5,30,–,–,–,–,–,–
COCCOC(=O)/C(C#N)=C(\NCc1ccc(OCc2cnc(Cl)s2)c(OC)c1)C(C)C,80.4,100,42.9,100,41.7,0,71.1,94.1,73.6,101.62,251.01,89.8,62.4
CCOCCOC(=O)/C(C#N)=C(/CC)NCc1ccc(OCc2cnc(Cl)s2)c(OC)c1,71.3,98.3,0,100,5,10,41.9,74.6,21,196.53,862.13,30.9,41.2
CCOCCOC(=O)/C(C#N)=C(\NCc1ccc(Cl)nc1)SC,75.8,100,0,100,90.7,35.1,85,100,100,8.84,133.77,100,100
CCOCCOC(=O)/C(C#N)=C(\NCc1ccc(OCc2cnc(Cl)s2)c(OC)c1)SC,87.1,86.3,10,97.4,10,0,49.2,–,–,507.9,2548.33,–,–
CC/C(NCc1ccc(OCc2cnc(Cl)s2)c(OC)c1)=C(\C#N)C(=O)OCCOC,70.2,96.6,2,100,0,0,46.8,46.4,0,237.1,817.35,32.9,42.9
CCOCCOC(=O)/C(C#N)=C(\NCc1ccc(OCc2cnc(Cl)s2)cc1)C(C)C,72.5,100,0,91.6,0,0,15,100,47.2,73.01,185.4,100,51.2
COCCOC(=O)/C(C#N)=C(/C)NCc1ccc(OCc2cnc(Cl)s2)c(OC)c1,42.7,84.6,0,92.2,15,0,56.5,–,–,–,–,–,–
COCCOC(=O)/C(C#N)=C(\NCc1ccc(OCc2cnc(Cl)s2)cc1)SC,80.9,100,0,71.3,0,0,30,–,–,–,–,–,–
COCCOC(=O)/C(C#N)=C(/C)NCc1ccc(OCc2cnc(Cl)s2)cc1,65.2,98.5,0,0,0,0,0,–,–,–,–,–,–
CCOCCOC(=O)/C(C#N)=C(\NCc1ccc(OCc2cnc(Cl)s2)c(OC)c1)C(C)C,93.8,100,0,100,0,0,68.5,100,59.3,131.42,484.4,87.8,73.5
CCOCCOC(=O)/C(C#N)=C(\NCc1ccc(OCc2cnc(Cl)s2)cc1)SC,72.5,100,0,100,10,0,0,100,55.6,49.14,197.66,91.6,95.1
CC/C(NCc1ccc(OCc2cnc(Cl)s2)cc1)=C(\C#N)C(=O)OCCOC,59.6,100,0,0,0,0,0,–,–,205.19,640.88,–,–
CCOCCOC(=O)/C(C#N)=C(/CC)NCc1ccc(OCc2cnc(Cl)s2)cc1,70.2,100,0,96.3,0,0,10,100,24.5,83.96,311.43,84.4,40
CCOCCOC(=O)/C(C#N)=C(/C)NCc1ccc(OCc2cnc(Cl)s2)cc1,56.5,100,0,32.6,0,0,0,–,–,–,–,–,–
